Test results reported in US6355799B1, “Substituted benzene compounds, process for their preparation, and herbicidal and defoliant compositions containing them” (ISK Americas Incorporated, priority 1997, dated 2002).

How the values were obtained:
Type in all cases: in vivo
[1] = tested on: field corn (Zea mays L., var. Dekalb 535, CORN); test: Pre-emerge test, crop safety; settings: rating scale 0-100, 14 days after application
Method in brief: (§1)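 Visual ratings on a 0-100 scale (0 no damage, 100 all plants dead) were taken at 14 days after treatment. Rates of 15-1000 g ai/ha in acetone, 187 l/ha, were sprayed onto soil one day after planting (pre-emerge) or onto 2-3 leaf plants with 0.25% v/v surfactant (post-emerge).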

[2] = tested on: upland rice (Oryza sp., var. Tebonnet, RICE); test: Pre-emerge test, crop safety; settings: rating scale 0-100, 14 days after application
Method in brief: as §1

[3] = tested on: field corn (Zea mays L., var. Dekalb 535, CORN); test: Post-emerge test, crop safety; settings: rating scale 0-100 (0 no damage, 100 complete death), 14 days after application
Method in brief: (§2)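 Plants grown in 10 cm pots of sandy loam mix received acetone-dissolved compounds through a moving flat-fan nozzle. Doses ranged from 15 to 1000 g ai/ha. Pre-emerge pots were seeded one day earlier, post-emerge pots 8–21 days earlier. Fourteen days on, each pot was graded 0–100 for damage.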

[4] = tested on: upland rice (Oryza sp., var. Tebonnet, RICE); test: Post-emerge test, crop safety; settings: rating scale 0-100 (0 no damage, 100 complete death), 14 days after application
Method in brief: as §2

[5] = tested on: redroot pigweed (Amaranthus retroflexus, AMARE); test: Post-emerge test, greenhouse herbicide activity screening; settings: rating scale 0-100 (0 no damage, 100 complete death), 14 days after application
Method in brief: (§3)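 Compounds in acetone were track-sprayed at 187 l/ha, 15–1000 g ai/ha, onto sandy loam pots. Pre-emerge seeds were sown one day before spraying, with surface watering afterwards. Post-emerge plants were at the 2–3 leaf stage and sprayed with 0.25% v/v non-ionic surfactant. Injury was rated 0–100 at 14 days.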

[6] = tested on: lambsquarters (Chenopodium album, CHEAL); test: as above; settings: rating scale 0-100 (0 no damage, 100 complete death), 14 days after application
Method in brief: as §3

[7] = tested on: green foxtail (Setaria viridis, SETVI); test: as above; settings: rating scale 0-100 (0 no damage, 100 complete death), 14 days after application
Method in brief: as §3

[8] = tested on: johnsongrass (Sorghum halepense, SORHA); test: as above; settings: rating scale 0-100 (0 no damage, 100 complete death), 14 days after application
Method in brief: as §3

[9] = tested on: velvetleaf (Abutilon theophrasti, ABUTH); test: as above; settings: rating scale 0-100 (0 no damage, 100 complete death), 14 days after application
Method in brief: as §3

[10] = tested on: large crabgrass (Digitaria sanguinalis, DIGSA); test: as above; settings: rating scale 0-100 (0 no damage, 100 complete death), 14 days after application
Method in brief: as §3

[11] = tested on: barnyardgrass (Echinochloa crus-galli, ECHCG); test: as above; settings: rating scale 0-100 (0 no damage, 100 complete death), 14 days after application
Method in brief: as §3

[12] = tested on: ivyleaf morningglory (Ipomoea hederacea, IPOHE); test: as above; settings: rating scale 0-100 (0 no damage, 100 complete death), 14 days after application
Method in brief: as §3

[13] = tested on: sicklepod (Cassia obtusifolia, CASOB); test: as above; settings: rating scale 0-100 (0 no damage, 100 complete death), 14 days after application
Method in brief: as §3

[14] = tested on: redroot pigweed (Amaranthus retroflexus, AMARE); test: Pre-emerge test, greenhouse herbicide activity screening; settings: rating scale 0-100, 14 days after application
Method in brief: as §2

[15] = tested on: lambsquarters (Chenopodium album, CHEAL); test: as above; settings: rating scale 0-100, 14 days after application
Method in brief: (§4)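 Rating: 0–100 visual injury, 14 DAA. Application: acetone, 187 l/ha, 15–1000 g ai/ha, flat-fan track sprayer with nozzle 40–45 cm above soil or canopy. Post-emerge runs used 0.25% v/v surfactant on 2–3 leaf plants.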

[16] = tested on: green foxtail (Setaria viridis, SETVI); test: as above; settings: rating scale 0-100, 14 days after application
Method in brief: as §4

[17] = tested on: johnsongrass (Sorghum halepense, SORHA); test: as above; settings: rating scale 0-100, 14 days after application
Method in brief: as §4

[18] = tested on: common ragweed (Ambrosia artemisizfolia L., AMBEL); test: as above; settings: rating scale 0-100, 14 days after application
Method in brief: as §4

[19] = tested on: velvetleaf (Abutilon theophrasti, ABUTH); test: as above; settings: rating scale 0-100, 14 days after application
Method in brief: as §4

[20] = tested on: large crabgrass (Digitaria sanguinalis, DIGSA); test: as above; settings: rating scale 0-100, 14 days after application
Method in brief: as §4

[21] = tested on: barnyardgrass (Echinochloa crus-galli, ECHCG); test: as above; settings: rating scale 0-100, 14 days after application
Method in brief: as §4

[22] = tested on: ivyleaf morningglory (Ipomoea hederacea, IPOHE); test: as above; settings: rating scale 0-100, 14 days after application
Method in brief: as §4

[23] = tested on: sicklepod (Cassia obtusifolia, CASOB); test: as above; settings: rating scale 0-100, 14 days after application
Method in brief: as §4

Compound: C=COC(=O)C(C)(Cl)Cc1c(OC)c(Cl)cc(F)c1-n1c(=O)cc(C(F)(F)F)n(C)c1=O (stereo not shown) [14-42]
- Pre-emerge phytotoxicity rating, crop damage CORN ([1]; 63 g ai/ha): 0
- Pre-emerge phytotoxicity rating, crop damage CORN ([1]; 250 g ai/ha): 20
- Pre-emerge phytotoxicity rating, crop damage RICE ([2]; 63 g ai/ha): 10
- Pre-emerge phytotoxicity rating, crop damage RICE ([2]; 250 g ai/ha): 30
- Post-emerge phytotoxicity rating CORN (crop damage) ([3]; Rate 63 g ai/ha): 100
- Post-emerge phytotoxicity rating CORN (crop damage) ([3]; Rate 250 g ai/ha): 100
- Post-emerge phytotoxicity rating RICE (crop damage) ([4]; Rate 63 g ai/ha): 95
- Post-emerge phytotoxicity rating RICE (crop damage) ([4]; Rate 250 g ai/ha): 100
- Post-emerge Herbicidal Activity, phytotoxicity rating AMARE ([5]; Rate 63 g ai/ha): 100
- Post-emerge Herbicidal Activity, phytotoxicity rating AMARE ([5]; Rate 250 g ai/ha): 100
- Post-emerge Herbicidal Activity, phytotoxicity rating CHEAL ([6]; Rate 63 g ai/ha): 100
- Post-emerge Herbicidal Activity, phytotoxicity rating CHEAL ([6]; Rate 250 g ai/ha): 100
- Post-emerge Herbicidal Activity, phytotoxicity rating SETVI ([7]; Rate 63 g ai/ha): 100
- Post-emerge Herbicidal Activity, phytotoxicity rating SETVI ([7]; Rate 250 g ai/ha): 100
- Post-emerge Herbicidal Activity, phytotoxicity rating SORHA ([8]; Rate 63 g ai/ha): 60
- Post-emerge Herbicidal Activity, phytotoxicity rating SORHA ([8]; Rate 250 g ai/ha): 95
- Post-emerge Herbicidal Activity, phytotoxicity rating ABUTH ([9]; Rate 63 g ai/ha): 100
- Post-emerge Herbicidal Activity, phytotoxicity rating ABUTH ([9]; Rate 250 g ai/ha): 100
- Post-emerge Herbicidal Activity, phytotoxicity rating DIGSA ([10]; Rate 63 g ai/ha): 95
- Post-emerge Herbicidal Activity, phytotoxicity rating DIGSA ([10]; Rate 250 g ai/ha): 100
- Post-emerge Herbicidal Activity, phytotoxicity rating ECHCG ([11]; Rate 63 g ai/ha): 100
- Post-emerge Herbicidal Activity, phytotoxicity rating ECHCG ([11]; Rate 250 g ai/ha): 100
- Post-emerge Herbicidal Activity, phytotoxicity rating IPOHE ([12]; Rate 63 g ai/ha): 100
- Post-emerge Herbicidal Activity, phytotoxicity rating IPOHE ([12]; Rate 250 g ai/ha): 100
- Post-emerge Herbicidal Activity, phytotoxicity rating CASOB ([13]; Rate 63 g ai/ha): 60
- Post-emerge Herbicidal Activity, phytotoxicity rating CASOB ([13]; Rate 250 g ai/ha): 90
- Pre-emerge herbicidal activity, phytotoxicity rating AMARE ([14]; 63 g ai/ha): 95
- Pre-emerge herbicidal activity, phytotoxicity rating AMARE ([14]; 250 g ai/ha): 100
- Pre-emerge herbicidal activity, phytotoxicity rating CHEAL ([15]; 63 g ai/ha): 90
- Pre-emerge herbicidal activity, phytotoxicity rating CHEAL ([15]; 250 g ai/ha): 100
- Pre-emerge herbicidal activity, phytotoxicity rating SETVI ([16]; 63 g ai/ha): 30
- Pre-emerge herbicidal activity, phytotoxicity rating SETVI ([16]; 250 g ai/ha): 80
- Pre-emerge herbicidal activity, phytotoxicity rating SORHA ([17]; 63 g ai/ha): 0
- Pre-emerge herbicidal activity, phytotoxicity rating SORHA ([17]; 250 g ai/ha): 0
- Pre-emerge herbicidal activity, phytotoxicity rating AMBEL ([18]; 63 g ai/ha): 0
- Pre-emerge herbicidal activity, phytotoxicity rating AMBEL ([18]; 250 g ai/ha): 100
- Pre-emerge herbicidal activity, phytotoxicity rating ABUTH ([19]; 63 g ai/ha): 80
- Pre-emerge herbicidal activity, phytotoxicity rating ABUTH ([19]; 250 g ai/ha): 95
- Pre-emerge herbicidal activity, phytotoxicity rating DIGSA ([20]; 63 g ai/ha): 0
- Pre-emerge herbicidal activity, phytotoxicity rating DIGSA ([20]; 250 g ai/ha): 50
- Pre-emerge herbicidal activity, phytotoxicity rating ECHCG ([21]; 63 g ai/ha): 0
- Pre-emerge herbicidal activity, phytotoxicity rating ECHCG ([21]; 250 g ai/ha): 20
- Pre-emerge herbicidal activity, phytotoxicity rating IPOHE ([22]; 63 g ai/ha): 0
- Pre-emerge herbicidal activity, phytotoxicity rating IPOHE ([22]; 250 g ai/ha): 30
- Pre-emerge herbicidal activity, phytotoxicity rating CASOB ([23]; 63 g ai/ha): 0
- Pre-emerge herbicidal activity, phytotoxicity rating CASOB ([23]; 250 g ai/ha): 0
